For the assay, the system named is P388 leukemia ip, CD2F1 mice, survival T/C. Description: NCI In Vivo Anticancer Drug Screen. Data for tumor model P388 Leukemia (intraperitoneal) in CD2F1 (CDF1) mice. The following applies: endpoint: median survival time, higher = longer survival. An outline of the steps:
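Mice carrying the transplanted tumor received test compound or vehicle. Survival was recorded in each group, and the value is the treated-group measurement divided by that of the vehicle-treated control group.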

The mark [1] stands for this setting: dose: 50.0 mg/kg/injection, schedule: Q01DX009 (ip), vehicle: saline with Tween-80.
Setting [2] is: dose: 25.0 mg/kg/injection, schedule: Q01DX005 (ip), vehicle: saline with Tween-80.
The mark [3] stands for this setting: dose: 50.0 mg/kg/injection, schedule: Q01DX005 (ip), vehicle: saline with Tween-80.
[4] abbreviates: dose: 200.0 mg/kg/injection, schedule: Q01DX005 (ip), vehicle: saline with Tween-80.
Where [5] appears, read: dose: 100.0 mg/kg/injection, schedule: Q01DX005 (ip), vehicle: saline with Tween-80.

Where “and” joins values, the source holds several entries; their conditions need not be identical. Equal entries are not always repeated. Inconclusive results and toxic doses are left out.

As to `CN(C)CCOc1ccccc1NC1=C(Cl)C(=O)C(Nc2ccccc2OCCN(C)C)=C(Cl)C1=O`, the T/C (dose: 3.12 mg/kg/injection, schedule: Q01DX005 (ip), vehicle: saline) is 96 % of control and 97 % of control; the T/C (dose: 6.25 mg/kg/injection, schedule: Q01DX005 (ip), vehicle: saline) is 105 % of control and 106 % of control and 98 % of control; the T/C (dose: 12.5 mg/kg/injection, schedule: Q01DX005 (ip), vehicle: saline) is 110 % of control and 114 % of control and 116 % of control; the T/C (dose: 25.0 mg/kg/injection, schedule: Q01DX005 (ip), vehicle: saline) is 105 % of control and 117 % of control and 121 % of control.
As to `c1ccc(C[N+]23CC[N+](Cc4ccccc4)(CC2)CC3)cc1`, the T/C by setting is: (dose: 50.0 mg/kg/injection, schedule: Q04DX003 (ip), vehicle: saline) 95 % of control; (dose: 100.0 mg/kg/injection, schedule: Q04DX003 (ip), vehicle: saline) 108 % of control; (dose: 200.0 mg/kg/injection, schedule: Q04DX003 (ip), vehicle: saline) 95 % of control.
As for `CC[Si](/C=C(/C)C(C)(C)C)(CC)CC`, the T/C by setting is: under setting [1], 94 % of control; (dose: 100.0 mg/kg/injection, schedule: Q01DX009 (ip), vehicle: saline with Tween-80) 96 % of control; (dose: 200.0 mg/kg/injection, schedule: Q01DX009 (ip), vehicle: saline with Tween-80) 113 % of control.
For `S=C(NNc1nnc(-c2ccccc2)c(-c2ccccc2)n1)Nc1ccc(Br)cc1`, the T/C is 97 % of control (dose: 12.5 mg/kg/injection, schedule: Q01DX005 (ip), vehicle: saline with Tween-80); 90 % of control under setting [2]; 97 % of control under setting [3]; 93 % of control under setting [4].
`O=c1nc(Oc2ccccc2)nc2ncccn12`: the T/C by setting is: (dose: 6.25 mg/kg/injection, schedule: Q01DX009 (ip), vehicle: saline with Tween-80) 101 % of control; (dose: 12.5 mg/kg/injection, schedule: Q01DX009 (ip), vehicle: saline with Tween-80) 112 % of control; under setting [1], 114 % of control.
Turning to `C[C@H](N)C(=O)N[C@@H]1[C@H]2C(=C(O)C[C@@H](O)[C@@H]2O)C(=O)O[C@@H]1C`, the T/C is 115 % of control (dose: 150.0 mg/kg/injection, schedule: Q01DX005 (ip), vehicle: saline) and 153 % of control (dose: 600.0 mg/kg/injection, schedule: Q01DX005 (ip), vehicle: suspension in saline).
Consider `C=C(COC(=O)/C=C\C)C(=O)OCC`, for which the T/C reads like this: (dose: 50.0 mg/kg/injection, schedule: Q01DX009 (ip), vehicle: saline) 106 % of control; (dose: 100.0 mg/kg/injection, schedule: Q01DX009 (ip), vehicle: saline) 99 % of control; (dose: 200.0 mg/kg/injection, schedule: Q01DX009 (ip), vehicle: saline) 106 % of control.
Consider `C=C1C2CCC3C4(C)CCCC(C)(C(=O)O)C4CCC3(C2)C1O` (stereo unspecified), for which the T/C was 100 % of control (dose: 15.0 mg/kg/injection, schedule: Q01DX005 (ip), vehicle: Klucel (hydroxypropylcellulose) (HPC)); 100 % of control (dose: 30.0 mg/kg/injection, schedule: Q01DX005 (ip), vehicle: Klucel (hydroxypropylcellulose) (HPC)); 99 % of control (dose: 60.0 mg/kg/injection, schedule: Q01DX005 (ip), vehicle: Klucel (hydroxypropylcellulose) (HPC)); 100 % of control (dose: 120.0 mg/kg/injection, schedule: Q01DX005 (ip), vehicle: Klucel (hydroxypropylcellulose) (HPC)).
As for `O=C(/C(=C/c1ccccc1)c1ccc(Cl)cc1)c1ccccc1`, the T/C runs as follows: (dose: 100.0 mg/kg/injection, schedule: Q04DX003 (ip), vehicle: saline with Tween-80) 116 % of control; (dose: 200.0 mg/kg/injection, schedule: Q04DX003 (ip), vehicle: saline with Tween-80) 100 % of control; (dose: 400.0 mg/kg/injection, schedule: Q04DX003 (ip), vehicle: saline with Tween-80) 103 % of control.
Turning to `CCC(C)C(N)C(=O)NC(CC(N)=O)C(=O)NC(CC(C)C)C(=O)NC(CCCCN)C(=O)NC(C)C(=O)NC(CC(C)C)C(=O)NC(C)C(=O)NC(C)C(=O)NC(CC(C)C)C(=O)NC(C)C(=O)NC(CCCCN)C(=O)NC(CCCCN)C(=O)NC(C(=O)NC(CC(C)C)C(N)=O)C(C)CC` (stereo unspecified), the T/C (dose: 1.56 mg/kg/injection, schedule: Q01DX005 (ip), vehicle: Klucel (hydroxypropylcellulose) (HPC)) is 102 % of control; the T/C (dose: 3.12 mg/kg/injection, schedule: Q01DX005 (ip), vehicle: Klucel (hydroxypropylcellulose) (HPC)) is 100 % of control; the T/C (dose: 6.25 mg/kg/injection, schedule: Q01DX005 (ip), vehicle: Klucel (hydroxypropylcellulose) (HPC)) was 95 % of control; the T/C (dose: 12.5 mg/kg/injection, schedule: Q01DX005 (ip), vehicle: Klucel (hydroxypropylcellulose) (HPC)) is 94 % of control and 96 % of control.
In the case of `O=C(O)c1ccc(N=NNc2ccc(C(=O)O)cc2)cc1`, the T/C is, setting by setting: (dose: 50.0 mg/kg/injection, schedule: Q01DX009 (ip), vehicle: Klucel (hydroxypropylcellulose) (HPC)) 96 % of control; (dose: 100.0 mg/kg/injection, schedule: Q01DX009 (ip), vehicle: Klucel (hydroxypropylcellulose) (HPC)) 99 % of control; (dose: 200.0 mg/kg/injection, schedule: Q01DX009 (ip), vehicle: Klucel (hydroxypropylcellulose) (HPC)) 95 % of control; (dose: 400.0 mg/kg/injection, schedule: Q01DX009 (ip), vehicle: Klucel (hydroxypropylcellulose) (HPC)) 96 % of control.
As to `Cc1nnsc1-c1n[nH]c(=S)n1N`, the T/C reads like this: (dose: 25.0 mg/kg/injection, schedule: Q01DX001 (ip), vehicle: Klucel (hydroxypropylcellulose) (HPC)) 106 % of control; (dose: 50.0 mg/kg/injection, schedule: Q01DX001 (ip), vehicle: Klucel (hydroxypropylcellulose) (HPC)) 107 % of control; (dose: 100.0 mg/kg/injection, schedule: Q01DX001 (ip), vehicle: Klucel (hydroxypropylcellulose) (HPC)) 101 % of control.
Regarding `FC(F)(F)C1(C(F)(F)F)O[Si]2(OC(C(F)(F)F)(C(F)(F)F)c3ccccc32)c2ccccc21`, the T/C (dose: 25.0 mg/kg/injection, schedule: Q01DX005 (ip), vehicle: distilled water + Tween-80 + alcohol) is 97 % of control; the T/C under setting [2] was 105 % of control; the T/C (dose: 50.0 mg/kg/injection, schedule: Q01DX005 (ip), vehicle: distilled water + Tween-80 + alcohol) is 96 % of control; the T/C under setting [3] is 103 % of control; the T/C under setting [5] was 105 % of control.
In the case of `Cc1nsc2[nH]c(=O)n(Nc3ccc(O)cc3)c(=O)c12`, the T/C under setting [5] is 174 % of control and 178 % of control; the T/C under setting [4] is 180 % of control.
`COc1cccc2c1C(=O)c1c(O)c3c(c(O)c1C2=O)C[C@@](O)(/C(CO)=N/NC(=O)c1ccccc1)C[C@@H]3OC1CC(N)C(O)C(C)O1` (stereo partly specified): the T/C was 103 % of control (dose: 0.12 mg/kg/injection, schedule: Q01DX009 (ip), vehicle: water); 99 % of control (dose: 0.25 mg/kg/injection, schedule: Q01DX009 (ip), vehicle: water); 150 % of control (dose: 0.5 mg/kg/injection, schedule: Q01DX009 (ip), vehicle: water); 112 % of control (dose: 0.8 mg/kg/injection, schedule: Q01DX009 (ip), vehicle: saline); 154 % of control and 169 % of control (dose: 1.0 mg/kg/injection, schedule: Q01DX009 (ip), vehicle: water); 112 % of control (dose: 1.4 mg/kg/injection, schedule: Q01DX009 (ip), vehicle: saline). The T/C is, setting by setting: (dose: 2.0 mg/kg/injection, schedule: Q01DX009 (ip), vehicle: water) 154 % of control and 171 % of control and 190 % of control; (dose: 2.3 mg/kg/injection, schedule: Q01DX009 (ip), vehicle: saline) 113 % of control; (dose: 3.9 mg/kg/injection, schedule: Q01DX009 (ip), vehicle: saline) 118 % of control; (dose: 4.0 mg/kg/injection, schedule: Q01DX009 (ip), vehicle: water) 172 % of control and 180 % of control and 212 % of control; (dose: 6.0 mg/kg/injection, schedule: Q04DX003 (ip), vehicle: water) 96 % of control; (dose: 8.0 mg/kg/injection, schedule: Q01DX009 (ip), vehicle: water) 201 % of control and 230 % of control and 390 % of control. Moreover, the T/C by setting is: (dose: 8.6 mg/kg/injection, schedule: Q01DX009 (ip), vehicle: saline) 163 % of control; (dose: 10.8 mg/kg/injection, schedule: Q01DX009 (ip), vehicle: saline) 187 % of control; (dose: 18.0 mg/kg/injection, schedule: Q01DX009 (ip), vehicle: saline) 90 % of control; (dose: 96.0 mg/kg/injection, schedule: Q04DX003 (ip), vehicle: water) 114 % of control.
With `C=C1C[C@H](O)[C@H]2C(C[Se]c3ccccc3)C(=O)O[C@@H]2[C@H]2[C@H](C)C(O)C[C@@H]12` (stereo partly specified), the T/C by setting is: (dose: 60.0 mg/kg/injection, schedule: Q01DX005 (ip), vehicle: saline with Tween-80) 91 % of control; (dose: 120.0 mg/kg/injection, schedule: Q01DX005 (ip), vehicle: saline with Tween-80) 95 % of control; (dose: 240.0 mg/kg/injection, schedule: Q01DX005 (ip), vehicle: saline with Tween-80) 98 % of control.

(Values after PubChem BioAssay AID330 (DTP/NCI, 2004).)
